Assay in all cases: NCI tumour cell line growth inhibition, 48 h
For assay [1], the system named is 786-0 renal.
For assay [2], the system named is ACHN renal.
The subject of assay [3] is DU-145 prostate.
The subject of assay [4] is IGROV1 ovarian.
In assay [5] the test system is K-562 leukemia.
Assay [6] concerns LOX IMVI melanoma.
Assay [7] relates to NCI-H226 lung.
The subject of assay [8] is UACC-257 melanoma.
Assay [9] deals with UACC-62 melanoma.
Assay [10] concerns UO-31 renal.

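Briefly, cells in 96-well plates were exposed to five compound concentrations for 48 h, and endpoints were estimated by linear interpolation. TGI marks complete inhibition of growth.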

For 24 compounds, TGI results are on record in PubChem BioAssay (NCI).

Regarding `C[C@H](CCC1=NCCN1)[C@H]1CC[C@H]2[C@@H]3[C@H](O)C[C@@H]4C[C@H](O)CC[C@]4(C)[C@H]3CC[C@]12C`, the TGI in assay [1] amounted to 27.7 µM; in assay [2], 30 µM; in assay [3], 27.3 µM; in assay [4], 23.9 µM; in [5], 21.6 µM; in assay [6], 22.8 µM. Also, the TGI in [7] worked out at 30.2 µM; in assay [8] it was 28.3 µM; in assay [9] it was 23.5 µM; in assay [10], 27.8 µM.

In the case of `COC(=O)[C@@H]1C=C[C@@H](C#N)n2c(=O)n(-c3ccccc3)c(=O)n21`, the TGI in assay [1] is 84.7 µM; in [2] it was greater than 100 µM; in assay [3], greater than 100 µM; in [4], greater than 100 µM; in [5] it was greater than 100 µM; in assay [6], 48.4 µM. Further, the TGI in assay [7] is 40.4 µM; in assay [8], greater than 100 µM; in [9], greater than 100 µM; in assay [10] it was greater than 100 µM.

With `CN(C)CCOc1ccc(I)cc1Cc1ccccc1`, the TGI was determined as 23 µM in assay [1]; 24.7 µM in [2]; 31.6 µM in assay [3]; 17.4 µM in [4]; 11.2 µM in assay [5]; 19.2 µM in assay [6]. Also, the TGI came to 33.9 µM in [7], 29.2 µM in [8], 13.1 µM in assay [9] and 20.4 µM in [10].

Regarding `CCCCCCCCCCCCCCCC(=O)ON1C(=S)NC(C)(c2ccccc2)C1=S` (stereo not given), the TGI in [1], in assay [2], in assay [3], in [4], in [5] and in assay [6] was greater than 100 µM each time. The TGI in assay [7], in assay [8], in assay [9] and in assay [10] was greater than 100 µM in each case.

As to `Cc1ccc(-c2sc(-c3ccc(C)cc3)c3c2C2CCC3C2)cc1`, the TGI in assay [1], in assay [2], in assay [3], in assay [4], in assay [5] and in [6] was greater than 50 µM in each case. In addition, the TGI in assay [7], in assay [8], in assay [9] and in assay [10] was greater than 50 µM throughout.

Regarding `O=[N+]([O-])c1cccc(N=C2c3ccccc3CN2c2cccc([N+](=O)[O-])c2)c1`, the TGI in assay [1], in assay [2], in [3], in assay [4], in [5] and in [6] was greater than 100 µM in each case. The TGI in assay [7], in [8], in assay [9] and in assay [10] was greater than 100 µM throughout.

In the case of `CC(=O)Oc1c(C)cc(-c2cc(C)c(OC(C)=O)c(C)c2)cc1C`, the TGI in assay [1], in [2], in assay [3], in assay [4], in assay [5] and in assay [6] was greater than 100 µM throughout. Also, the TGI in assay [7] is 94.4 µM; in assay [8] it was greater than 100 µM; in assay [9] it was greater than 100 µM; in [10] it was 84.6 µM.

For the compound `N#Cc1cccc(C2ON=C(c3ccc([N+](=O)[O-])cc3)N2C23CC4CC(CC(C4)C2)C3)c1` (stereo not given), the TGI in assay [1], in assay [2], in [3], in [4], in assay [5] and in assay [6] was greater than 100 µM throughout. Besides, the TGI in assay [7], in assay [8], in assay [9] and in [10] was greater than 100 µM in each case.

As for `CNNC1=NS(=O)(=O)c2cc(C)c(Cl)cc2S1`, the TGI in assay [1], in assay [2], in [3], in [4], in assay [5] and in assay [6] was greater than 10 µM each time. Also, the TGI in [7] was greater than 10 µM; in assay [8], greater than 10 µM; in assay [9], greater than 10 µM; in [10], 0.0901 µM.

As to `CC(=O)OCC1OC(Nc2ccc3nc(C)n(-c4cccc(C)c4)c(=O)c3c2)C(OC(C)=O)C(OC(C)=O)C1OC(C)=O` (stereo not given), the TGI in assay [1], in assay [2], in assay [3], in assay [4], in assay [5] and in assay [6] was greater than 62.5 µM throughout. Moreover, the TGI in assay [7], in assay [8], in assay [9] and in [10] was greater than 62.5 µM in each case.

`O=C(O)c1cccc(S(=O)(=O)NN2C(=O)CSC2c2ccccc2)c1` (stereo not given): the TGI in assay [1], in assay [2], in assay [3], in assay [4], in assay [5] and in assay [6] was greater than 100 µM each time. In addition, the TGI in assay [7], in [8], in assay [9] and in assay [10] was greater than 100 µM each time.

For `O=c1[nH]c2cc(C(F)(F)F)ccc2nc1Cc1ccccc1`, the TGI in assay [1], in [2], in [3], in assay [4], in [5] and in assay [6] was greater than 100 µM each time. Further, the TGI in [7], in [8], in [9] and in assay [10] was greater than 100 µM in each case.

In the case of `Nc1nc(Cl)c(C=O)c(NCC2(CO)CC(CCc3ccccc3)C2)n1` (stereo not given), the TGI was 69.5 µM in assay [1]; 25.8 µM in assay [2]; 30.8 µM in assay [3]; 3.48 µM in assay [4]; 4.57 µM in assay [5]; 10.8 µM in assay [6]. Further, the TGI in assay [7] stood at 27.7 µM; in assay [8], 21.3 µM; in assay [9] it was 16.2 µM; in [10], 2.91 µM.

Regarding `Cc1cccc(/C=N/NC(=S)NCc2ccccn2)n1`, the TGI in assay [1] is greater than 100 µM; in assay [2], 67.5 µM; in assay [3], greater than 100 µM; in assay [4], greater than 100 µM; in assay [5] it was greater than 100 µM; in assay [6], greater than 100 µM. The TGI is greater than 100 µM in [7], greater than 100 µM in assay [8], 54.3 µM in assay [9] and 60 µM in assay [10].

As to `Cc1nc2c(o1)C(=O)c1ccccc1C2=NC1CCCCC1N` (stereo not given), the TGI in [1] is 3.43 µM; in [2] it was 2 µM; in assay [3] it was 2.8 µM; in assay [4] it was 2.89 µM; in assay [5], greater than 100 µM; in assay [6], 0.66 µM. The TGI worked out at 3.75 µM in [7], 0.321 µM in [8], 0.318 µM in [9] and 3 µM in assay [10].

On to `COC(=O)C1Cc2ccc(C)cc2C1=O` (stereo not given), for which the TGI in assay [1], in assay [2], in assay [3], in assay [4], in [5] and in [6] was greater than 100 µM throughout. In addition, the TGI in assay [7], in [8], in assay [9] and in assay [10] was greater than 100 µM in each case.

Consider `COC(=O)c1ccc2c(c1)CC1(C2)Cc2cc3c(c(C(=O)OC)c2C1)CCCC3` (stereo not given), for which the TGI in assay [1], in assay [2], in assay [3], in assay [4], in assay [5] and in [6] was greater than 100 µM each time. The TGI in [7], in [8], in [9] and in [10] was greater than 100 µM each time.

`CSc1c(C(=O)Nc2ccc(C)cc2)c(N)nn1-c1ccccc1`: the TGI is 45 µM in assay [1]; greater than 100 µM in assay [2]; greater than 100 µM in assay [3]; greater than 100 µM in assay [4]; greater than 100 µM in [5]; greater than 100 µM in assay [6]. Also, the TGI in assay [7], in [8], in [9] and in assay [10] was greater than 100 µM each time.

As for `O=C(O)C(Cc1ccc2c(c1)CCC2)(Cc1ccc2c(c1)CCC2)C(=O)O`, the TGI in [1], in assay [2], in assay [3], in assay [4], in [5] and in assay [6] was greater than 100 µM in each case. The TGI in assay [7], in [8], in assay [9] and in assay [10] was greater than 100 µM each time.

`OC1c2ccccc2[C@@H]2[C@H]1[C@@H](c1ccccc1)C1(Cc3ccccc3C1O)[C@H]2c1ccccc1` (stereo not given in full): the TGI is 8.28 µM in assay [1]; 16.7 µM in [2]; 22 µM in [3]; 16.6 µM in [4]; 10.7 µM in assay [5]; 7.04 µM in assay [6]. Besides, the TGI in [7] is 19.4 µM; in assay [8] it was 11.1 µM; in [9] it was 20.6 µM; in assay [10], 20.3 µM.

Take `COC(=O)C1Cc2c([nH]c3ccccc23)C(c2cccc(O)c2)N1` (stereo not given): the TGI was greater than 100 µM in [1]; greater than 100 µM in [2]; 55.3 µM in [3]; greater than 100 µM in assay [4]; greater than 100 µM in assay [5]; greater than 100 µM in assay [6]. Further, the TGI in assay [7], in [8], in [9] and in [10] was greater than 100 µM in each case.

`CC(=O)Oc1ccc(N2C(=O)C3c4[nH]c5ccccc5c4C4CCC(C(C)(C)C)CC4C3C2=O)cc1` (stereo not given): the TGI stood at 4.31 µM in assay [1]; 12.2 µM in assay [2]; 12.2 µM in assay [3]; 19.9 µM in assay [4]; 10.9 µM in assay [5]; 14.3 µM in [6]. Also, the TGI in assay [7] was 26.1 µM; in assay [8], 24 µM; in assay [9] it was 20.7 µM; in [10], 17.7 µM.

As for `COc1cc2c(cc1OC)C1Cc3ccccc3CCN1CC2` (stereo not given), the TGI in assay [1], in assay [2], in [3], in assay [4], in assay [5] and in assay [6] was greater than 100 µM throughout. Besides, the TGI in assay [7], in assay [8], in assay [9] and in assay [10] was greater than 100 µM each time.

With `CC(C)Nc1[nH]c(C(=O)c2ccccc2)c(N)c1C(=S)Nc1ccccc1`, the TGI in assay [1] is greater than 100 µM; in assay [2] it was greater than 100 µM; in [3] it was greater than 100 µM; in assay [4], greater than 100 µM; in [5] it was greater than 100 µM; in assay [6] it was 80.4 µM. Besides, the TGI in assay [7] is greater than 100 µM; in assay [8] it was 46.7 µM; in assay [9], 35.2 µM; in [10], greater than 100 µM.
